According to patent US20040266885A1, “Wood preservative compositions” (priority 2001, published 2004):
Values joined by “and” are separate entries in the source; they are usually repeats but may differ in a detail not shown here. Equal values may be shown once. “Also recorded” adds a separate entry of the source. Read-outs that look alike come from different tables or passages of the source.

System: Coptotermes formosanus
Details: for Surface Activity (termites on the surface of the soil) / Tunneling Activity / Visible Mortality / repellent effect on termites (surface activity data) / termite mortality by the end of the incubation period / toxic value, lower (concentration at which the wood is no longer sufficiently protected) / toxic value, upper (lowest concentration which protects the wood) / Mean Rating (termite attack) / Termite Attack Rating: ethanol carrier; for reduction in termite attack: concentrated solutions, followed by leaching; for termite mortality by the end of the incubation period: higher concentrations; for toxic value, lower (concentration at which the wood is no longer sufficiently protected) / toxic value, upper (lowest concentration which protects the wood): mean loading, leached; for toxic value, lower (concentration at which the wood is no longer sufficiently protected): solution concentration 5%; for toxic value, upper (lowest concentration which protects the wood): solution concentration 7%; for Mean Rating (termite attack): mean of 4 specimens; for Mean Rating (termite attack) / Termite Attack Rating: 4 weeks sand culture; for Termite Attack Rating: single specimen
Text: A laboratory test was undertaken to determine the toxic values of novel actives against termites. The active materials used were TBBA, TBBE [4,4′-ethylidenebis(2,6-dibromophenol)] [CAS RN=12639-25-3] (Sample Number 1392-82-03); TBBZ [4,4′-cyclohexylidene(2,6-dibromophenol)] [CAS RN=53350-96-2] (Sample Number 1392-72-03) and TBA, 2,2′,6-tribromo-4,4′-isopropylidenediphenol, CAS 6386-73-8 (Sample Number 1392-75-03).
The test was undertaken largely according to the strictures laid down in ASTM 3345-74 (the American standard laboratory test to assess the termite resistant properties of wood to wood destroying termites). The test method allows for the exposure of treated buried wood blocks to termites (Reticulitermes or Coptotermes spp.) over a period of 4 weeks. Efficacy of the product is determined by the extent of termite damage to the treated timber specimens through a scoring system. The test was slightly modified from the standard ASTM test by reducing the number of replicate wood specimens from 5 to 4.
Score 1: Attempted attack
The toxic values of the preservative product (in kg/m^3 of wood) fall between two values as follows:
1) The lowest concentration which protects the wood (i.e. the concentration at which none of the test specimens show a degree of attack greater than 1).
The termites employed were Coptotermes formosanus.
All wood bock specimens were of Southern Yellow Pine sapwood (Pinus spp.) with dimensions of 25.4×25.4×6.4 mm in accordance with ASTM D3345-74. All blocks were vacuum impregnated with the relevant solutions in accordance with ASTM D3345-74. Distribution of blocks in the test was as follows:
The test specimens were conditioned and subjected to a leaching schedule (after vacuum impregnation) as stipulated in ASTM D1413-76 (as recommended in ASTM D3345-74). All test specimens were then air dried for two weeks to constant weight.
The specimens were each positioned at the base of a 500 ml polyethylene culture jar (numbered according to each test specimen) and covered with 200 g of sand (pre-washed, sterilised and air conditioned in the laboratory) to which was added 25 g of de-ionised water. A further two containers containing watered sand but no timber were also prepared. All the jars were sealed (lids pre-pierced and covered with stainless steel mesh for aeration).
Two days after specimen placement, 200 termites were added to each culture jar (90% workers and 10% soldiers) and the jars re-sealed. The jars were incubated at a mean temperature and relative humidity of 27.5° C. and 75-90% for 4 weeks. The containers were provided with an artificial lighting regime of 10 hours light and 14 hours darkness.
After 1 week and 4 weeks each container was examined to determine termite mortality and normal tunneling behaviour patterns as follows:
Is there tunneling present: YES/NO
Are there any termites on the surface of the soil: YES/NO (if yes how many, i.e. 1-25% of pop, 26-50% of pop, 51-100% of pop.)
Are any dead termites visible: YES/NO (if yes how many, 1-33%, 34-66%, 67-100%)
After 4 weeks the test specimens were removed and cleaned of debris. Each block was examined and visually rated for termite damage using the scoring system detailed above.
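Throughout, for Termite Attack Rating: score 0 no attack 2 slight 3 average 4 strong attack.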

## CC(C)(c1ccc(O)c(Br)c1)c1cc(Br)c(O)c(Br)c1 [TBA, 2,2′,6-tribromo-4,4′-isopropylidenediphenol]
1 week, solution conc. 1%
  Surface Activity (termites on the surface of the soil): No/No
  Tunneling Activity: Yes/Yes
  Visible Mortality: No/No
1 week, solution conc. 3%
  Surface Activity (termites on the surface of the soil): No/No
  Tunneling Activity: Yes/Yes
  Visible Mortality: No
1 week, solution conc. 5%
  Surface Activity (termites on the surface of the soil): No/No
  Tunneling Activity: Yes/Yes
  Visible Mortality: No
1 week, solution conc. 7%
  Surface Activity (termites on the surface of the soil): No/No
  Tunneling Activity: Yes/Yes
  Visible Mortality: No
1 week, solution conc. 10%
  Surface Activity (termites on the surface of the soil): No/No
  Tunneling Activity: Yes/Yes
  Visible Mortality: No
4 weeks, solution conc. 1%
  Surface Activity (termites on the surface of the soil): No/No
  Tunneling Activity: Yes/Yes
  Visible Mortality: No/No
4 weeks, solution conc. 3%
  Surface Activity (termites on the surface of the soil): No/No
  Tunneling Activity: Yes/Yes
  Visible Mortality: 1-33 % (of pop.)
4 weeks, solution conc. 5%
  Surface Activity (termites on the surface of the soil): No/No
  Tunneling Activity: Yes/Yes
  Visible Mortality: 34-66 % (of pop.)
4 weeks, solution conc. 7%
  Surface Activity (termites on the surface of the soil): No/No
  Tunneling Activity: Yes/Yes
  Visible Mortality: 34-66 % (of pop.)
4 weeks, solution conc. 10%
  Surface Activity (termites on the surface of the soil): No/No
  Tunneling Activity: Yes/Yes
  Visible Mortality: 34-66 % (of pop.)
  reduction in termite attack: a significant reduction in termite attack
  repellent effect on termites (surface activity data): no repellent effect
  termite mortality by the end of the incubation period: 34-66%
4 weeks
  toxic value, lower (concentration at which the wood is no longer sufficiently protected): 30.17 kg/m^3
  toxic value, upper (lowest concentration which protects the wood): 41.22 kg/m^3
Solution conc. 1%
  Mean Rating (termite attack): 3.00
  Termite Attack Rating: 3 and 2 and 4
Solution conc. 3%
  Mean Rating (termite attack): 1.75
  Termite Attack Rating: 2 and 1
Solution conc. 5%
  Mean Rating (termite attack): 1.75
  Termite Attack Rating: 2 and 1
Solution conc. 7%
  Mean Rating (termite attack): 1.00
  Termite Attack Rating: 1
Solution conc. 10%
  Mean Rating (termite attack): 1.00
  Termite Attack Rating: 1

## CC(c1cc(Br)c(O)c(Br)c1)c1cc(Br)c(O)c(Br)c1 [TBBE, 4,4′-ethylidenebis(2,6-dibromophenol)]
1 week, solution conc. 1%
  Surface Activity (termites on the surface of the soil): No/No
  Tunneling Activity: Yes/Yes
  Visible Mortality: No/No
1 week, solution conc. 3%
  Surface Activity (termites on the surface of the soil): No/No
  Tunneling Activity: Yes/Yes
  Visible Mortality: No
1 week, solution conc. 5%
  Surface Activity (termites on the surface of the soil): No/No
  Tunneling Activity: Yes/Yes
  Visible Mortality: No
1 week, solution conc. 7%
  Surface Activity (termites on the surface of the soil): 1-25%/1-25% (of % (of pop.)
  Tunneling Activity: Yes/Yes
1 week, solution conc. 10%
  Surface Activity (termites on the surface of the soil): 1-25%/1-25% (of % (of pop.)
  Tunneling Activity: Yes/Yes
  Visible Mortality: No
4 weeks, solution conc. 1%
  Surface Activity (termites on the surface of the soil): No/No
  Tunneling Activity: Yes/Yes
  Visible Mortality: No/No
4 weeks, solution conc. 3%
  Surface Activity (termites on the surface of the soil): No/No
  Tunneling Activity: Yes/Yes
  Visible Mortality: 1-33 % (of pop.)
4 weeks, solution conc. 5%
  Surface Activity (termites on the surface of the soil): No/No
  Tunneling Activity: Yes/Yes
4 weeks, solution conc. 7%
  Surface Activity (termites on the surface of the soil): 1-25%/1-25% (of % (of pop.)
  Tunneling Activity: Yes/Yes
  Visible Mortality: 67-100 % (of pop.)
4 weeks, solution conc. 10%
  Surface Activity (termites on the surface of the soil): 1-25%/1-25% (of % (of pop.)
  Tunneling Activity: Yes/Yes
  Visible Mortality: 67-100 % (of pop.)
  reduction in termite attack: a significant reduction in termite attack
  repellent effect on termites (surface activity data): a degree of termite repellency; also recorded: a repellent effect at certain stages of the incubation period; also recorded: a repellent effect early in the incubation period at higher concentrations
  termite mortality by the end of the incubation period: significant termite mortality
4 weeks
  toxic value, lower (concentration at which the wood is no longer sufficiently protected): 28.53 kg/m^3
  toxic value, upper (lowest concentration which protects the wood): 35.93 kg/m^3
Solution conc. 1%
  Mean Rating (termite attack): 3.00
  Termite Attack Rating: 3
Solution conc. 3%
  Mean Rating (termite attack): 2.00
  Termite Attack Rating: 2 and 3 and 1
Solution conc. 5%
  Mean Rating (termite attack): 1.50
  Termite Attack Rating: 2 and 1
Solution conc. 7%
  Mean Rating (termite attack): 1.00
  Termite Attack Rating: 1
Solution conc. 10%
  Mean Rating (termite attack): 1.25
  Termite Attack Rating: 1 and 2
